Reference: PubChem BioAssay AID212 (DTP/NCI, 2004)
Several values for one entry are separate records, joined by “and”; a condition that tells them apart may be missing. Equal entries are not always repeated. Inconclusive results are not listed.

System: BDF1 mice, colon carcinoma 38 sc, T/C %
Assay: NCI In Vivo Anticancer Drug Screen. Data for tumor model Colon Carcinoma 38 (subcutaneous) in B6D2F1 (BDF1) mice
Conditions: endpoint: median tumor weight (est.), higher = larger tumour
Outline: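 Mice with transplanted tumors are treated with compound or vehicle. Survival or tumor size is then measured in both groups. The ratio of treated to control gives the reported figure.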

[1] = dose: 6.25 mg/kg/injection, schedule: Q07DX002 (ip), vehicle: saline with Tween-80
[2] = dose: 12.5 mg/kg/injection, schedule: Q07DX002 (ip), vehicle: saline with Tween-80
[3] = dose: 25.0 mg/kg/injection, schedule: Q07DX002 (ip), vehicle: saline with Tween-80
[4] = dose: 50.0 mg/kg/injection, schedule: Q07DX002 (ip), vehicle: saline with Tween-80
[5] = dose: 100.0 mg/kg/injection, schedule: Q07DX002 (ip), vehicle: saline with Tween-80
[6] = dose: 400.0 mg/kg/injection, schedule: Q07DX002 (ip), vehicle: saline with Tween-80
[7] = dose: 800.0 mg/kg/injection, schedule: Q07DX002 (ip), vehicle: saline with Tween-80
[8] = dose: 200.0 mg/kg/injection, schedule: Q07DX002 (ip), vehicle: saline with Tween-80

Q: Which T/C (dose: 25.0 mg/kg/injection, schedule: Q07DX002 (ip), vehicle: suspension in saline) does the source give for CC1(C)COCN1COC1CCCCC1 here?
A: Its T/C is 84 % of control.

Q: And the T/C (dose: 50.0 mg/kg/injection, schedule: Q07DX002 (ip), vehicle: suspension in saline)?
A: Its T/C is 93 % of control.

Q: And the T/C (dose: 100.0 mg/kg/injection, schedule: Q07DX002 (ip), vehicle: suspension in saline)?
A: Its T/C is 97 % of control.

Q: And the T/C (dose: 200.0 mg/kg/injection, schedule: Q07DX002 (ip), vehicle: suspension in saline)?
A: The T/C was 64 % of control.

Q: Which T/C (dose: 3.12 mg/kg/injection, schedule: Q07DX002 (ip), vehicle: saline with Tween-80) does the source give for CCOC(=O)c1ccc(NN=NCCF)cc1 here?
A: Its T/C is 86 % of control.

Q: And the T/C [1]?
A: The T/C was 94 % of control.

Q: And the T/C [2]?
A: Its T/C is 70 % of control.

Q: And the T/C [3]?
A: The T/C was 89 % of control.

Q: For COc1cc([C@@H]2c3cc4c(cc3[C@@H](OC3OC5COC(C)OC5C(O)C3O)[C@H]3COC(=O)[C@H]23)OCO4)cc(OC)c1O (stereo not given in full), which T/C (dose: 16.0 mg/kg/injection, schedule: Q07DX003 (ip), vehicle: clinical formulation) is on record?
A: The T/C was 68 % of control.

Q: And the T/C (dose: 32.0 mg/kg/injection, schedule: Q07DX003 (ip), vehicle: clinical formulation)?
A: Its T/C is 83 % of control.

Q: And the T/C (dose: 64.0 mg/kg/injection, schedule: Q07DX003 (ip), vehicle: clinical formulation)?
A: Its T/C is 27 % of control.

Q: What does the source list for CCOC(=O)c1cn(C)c2c1C(O)=C(C(=O)OC)CC(=O)N2?
A: T/C [4]: 81 % of control; T/C [5]: 119 % of control; T/C [6]: 88 % of control; T/C [7]: 97 % of control

Q: What does the source list for Cn1ccc(=Nc2ccc(NC(=O)c3ccc(N=c4ccn(C)c5ccc([N+](=O)[O-])cc45)cc3[N+](=O)[O-])cc2)cc1?
A: T/C [3]: 99 % of control; T/C [4]: 60 % of control; T/C [5]: 105 % of control; T/C [8]: 90 % of control; T/C [6]: 29 % of control; T/C [7]: 67 % of control

Q: CCOC(=O)C(C)(C)Oc1ccc(Cl)cc1 was tested. Which T/C [2] did it give?
A: The T/C was 60 % of control.

Q: What about the T/C [4] of the same molecule?
A: The T/C was 94 % of control and 100 % of control.

Q: What about the T/C [8] of the same molecule?
A: Its T/C is 110 % of control.

Q: And the T/C [6]?
A: Its T/C is 86 % of control.

Q: With Cc1cnc(/C=N\NC(N)=S)c2cccc(N)c12 as the molecule, how does the T/C [1] read?
A: Its T/C is 110 % of control.

Q: What about the T/C (dose: 6.25 mg/kg/injection, schedule: Q07DX003 (ip), vehicle: saline with Tween-80) of the same molecule?
A: Its T/C is 88 % of control.

Q: What about the T/C [2] of the same molecule?
A: The T/C was 69 % of control.

Q: And the T/C (dose: 12.5 mg/kg/injection, schedule: Q07DX003 (ip), vehicle: saline with Tween-80)?
A: Its T/C is 111 % of control.

Q: And the T/C (dose: 25.0 mg/kg/injection, schedule: Q07DX003 (ip), vehicle: saline with Tween-80)?
A: The T/C was 122 % of control.

Q: What about the T/C [4] of the same molecule?
A: The T/C was 36 % of control and 57 % of control.

Q: What about the T/C (dose: 50.0 mg/kg/injection, schedule: Q07DX003 (ip), vehicle: saline with Tween-80) of the same molecule?
A: Its T/C is 45 % of control.

Q: With CC1CCC(n2cnc3c(Cl)ncnc32)O1 (stereo not given) as the molecule, how does the T/C (dose: 12.5 mg/kg/injection, schedule: Q07DX002 (ip), vehicle: Klucel (hydroxypropylcellulose) (HPC)) read?
A: The T/C was 76 % of control.

Q: What about the T/C (dose: 50.0 mg/kg/injection, schedule: Q07DX002 (ip), vehicle: Klucel (hydroxypropylcellulose) (HPC)) of the same molecule?
A: Its T/C is 78 % of control and 100 % of control.

Q: What about the T/C (dose: 62.0 mg/kg/injection, schedule: Q07DX002 (ip), vehicle: Klucel (hydroxypropylcellulose) (HPC)) of the same molecule?
A: Its T/C is 87 % of control.

Q: And the T/C (dose: 100.0 mg/kg/injection, schedule: Q07DX002 (ip), vehicle: Klucel (hydroxypropylcellulose) (HPC))?
A: Its T/C is 86 % of control and 95 % of control.

Q: What about the T/C (dose: 125.0 mg/kg/injection, schedule: Q07DX002 (ip), vehicle: Klucel (hydroxypropylcellulose) (HPC)) of the same molecule?
A: The T/C was 115 % of control.

Q: And the T/C (dose: 200.0 mg/kg/injection, schedule: Q07DX002 (ip), vehicle: Klucel (hydroxypropylcellulose) (HPC))?
A: The T/C was 109 % of control and 95 % of control.

Q: What about the T/C (dose: 250.0 mg/kg/injection, schedule: Q07DX002 (ip), vehicle: Klucel (hydroxypropylcellulose) (HPC)) of the same molecule?
A: The T/C was 56 % of control.

Q: With C(CC1CO1)C1CO1 (stereo not given) as the molecule, how does the T/C (dose: 5.0 mg/kg/injection, schedule: Q07DX002 (ip), vehicle: Klucel (hydroxypropylcellulose) (HPC)) read?
A: The T/C was 172 % of control and 185 % of control.

Q: And the T/C (dose: 10.0 mg/kg/injection, schedule: Q07DX002 (ip), vehicle: Klucel (hydroxypropylcellulose) (HPC))?
A: Its T/C is 106 % of control.

Q: And the T/C (dose: 40.0 mg/kg/injection, schedule: Q07DX002 (ip), vehicle: Klucel (hydroxypropylcellulose) (HPC))?
A: Its T/C is 245 % of control.

Q: And the T/C (dose: 80.0 mg/kg/injection, schedule: Q07DX002 (ip), vehicle: Klucel (hydroxypropylcellulose) (HPC))?
A: The T/C was 115 % of control.

Q: What about the T/C (dose: 160.0 mg/kg/injection, schedule: Q07DX002 (ip), vehicle: Klucel (hydroxypropylcellulose) (HPC)) of the same molecule?
A: The T/C was 81 % of control.

Q: How did the T/C (dose: 4.0 mg/kg/injection, schedule: Q07DX002 (ip), vehicle: water) turn out when CCC1=C[C@H]2CN(CCc3c([nH]c4ccccc34)[C@@](C(=O)OC)(c3cc4c(cc3OC)N(C)[C@H]3[C@@](O)(C(=O)OC)[C@H](OC(C)=O)[C@]5(CC)C=CCN6CC[C@]43[C@@H]65)C2)C1 was run?
A: The T/C was 75 % of control and 82 % of control.
